Reference: patent US9723843B2, “Family of silver (I) periodate compounds having broad microbial properties” (Innovotech, Inc., priority 2011, dated 2017)
Where two headings read alike, the source gives them in different places.

Experiments:
[1] = room temperature
Procedure: The purpose of this study was to determine whether or not Ag5IO6 interacts with methanol, tetrahydrofuran, acetone, and acetonitrile.
• i. […] of Ag5IO6 was placed in a vial, 2 mL of the solvent was added, and the vial was placed in a TAM III for an isothermal run at room temperature for >24 h with solvent only as the reference. The heat flow was measured. • ii. After the run was complete, the solvents were allowed to flash off and the solids collected were submitted to XRD. • iii. Samples exposed following essentially the same method for only 18 h were also submitted for XRD.

[2] = greater than 1.3 million lux hours exposure
Text: The purpose of this study was to assess the photostability of Ag5IO6 in accordance with the FDA's 1997 recommendations regarding the photostability testing of new products.
The samples were then submitted for XRD.

[3] = Procedure: The purpose of this study was to develop a basic understanding of the solubility (and stability) of Ag5IO6 in pure water and 0.9% (physiological saline), following OECD Method (105)—flask.
• 1. About 0.1 g Ag5IO6 was weighed into 6 100 mL volumetric flasks. • 2. The flasks were filled to volume with ddH2O or 0.9% saline. • 3. The vessels were tightly stoppered and then agitated using a shaker in an incubator at 30° C. for approximately 24 hours. • 4. After 24 hours, two of the vessels (one per solvent) were equilibrated for 24 h at the test temperature (20° C., using a water bath) with occasional shaking. • 5. Pictures were obtained of the solutions and solid present. • 6. The contents of the vessels were then centrifuged at the test temperature (20° C.). • 7. The concentration of the test substance in the clear aqueous phase was determined by atomic absorption spectroscopy. • 8. The pH of the solution was measured using a pH meter. • 9. Triplicate samples of the solution were analyzed by UV-Vis spectroscopy. • 10. A sample of the solid material was collected by vacuum filtration, allowed to dry on the filter for 15 minutes, then transferred to a watch glass and placed in the fume hood to dry overnight. The sample was then packaged in a glass vial covered in aluminum foil and submitted for XRD analysis. • 11. The procedures of steps 4-10 were repeated for the second and third flask, after an initial equilibration at 30° C. for two and three days, respectively. Results

[4] = remark: listed apart in the source
Procedure: The purpose of this study was to determine the stability of Ag5IO6 at various temperatures independent of hydrolytic or photolytic effects, in order to obtain an understanding of its storage stability, and also to perform differential scanning calorimetry and thermal gravimetry.
• i. Ag5IO6 was made fresh, a sample was submitted for XRD analysis (Day 0), and then additional samples were placed at room temperature, 40° C., 54° C., and 90° C. for 14 and 28 days in amber glass vials placed in CO2 impermeable foil pouches with desiccant packs. After the allotted time period, the samples were submitted for XRD. • Samples were submitted for DSC/TGA to measure thermal stability.

[Ag+].[Ag+].[Ag+].[Ag+].[Ag+].[O-][I+]([O-])([O-])([O-])([O-])[O-] [Ag5IO6, pentasilver hexaoxoiodate]
onset of significant reaction ([1]; THF): ~56 h | onset of significant reaction ([1]; acetonitrile (slower onset)): ~56 h | time blended with solvents without substantial reaction ([1]; all solvents (methanol, tetrahydrofuran, acetone, acetonitrile)): < 18 h | onset of significant reaction ([1]; methanol): ~33 h | composition after light exposure (XRD) [2]: 100 % Ag5IO6 | solubility in saline ([3]; 0.9% saline, 20° C., calculated assuming that all Ag in solution is due to Ag5IO6): 0.61 ± 0.05 µg/mL | solubility in ddH2O ([3]; ddH2O, 20° C., calculated assuming that all Ag in solution is due to Ag5IO6): 24.41 ± 0.87 µg/mL | solid material converted to Ag metal (XRD) ([3]; in ddH2O): 0.1% | solid material remained as Ag5IO6 (XRD) ([3]; in ddH2O): approximately 99.9% | solid material converted to AgCl (XRD) ([3]; in saline, solid collected at the end of the experiment): approximately 25% | pH in saline ([3]; solution over Ag5IO6 in 0.9% saline): 10 | pH in ddH2O ([3]; solution over Ag5IO6 in ddH2O): 8 | composition after storage (XRD) ([4]; 90° C., 14 and 28 days): 100 % Ag5IO6 | grain size ([4]; 90° C., Day 14): 62 Å | grain size ([4]; 90° C., Day 28): 94 Å | grain size ([4]; Day 0): 14 Å | temperature up to which stable ([4]; powder): > 400 °C | time stable at 90° C. ([4]; powder, 90° C.): > 28 days | temperature up to which stable ([4]; powder, listed as Ag5IO6 powder): up to 440 °C | shelf life at room temperature ([4]; suggested by stability at 54° C. for 28 days): > 2 years
